System: 699152-130-R-J1-PDC complex spheroid growth
Experiment: Anticancer human tumor 699152-130-R-J1-PDC patient-derived pancreatic carcinoma cell line growth inhibition [AhR]
Settings: for IC50: curve of first compound; for viability, T/C: stronger effect = lower value
Description: Multicellular complex tumor spheroid response to aryl hydrocarbon receptor antagonists in combination with a variety of drugs and investigational agents in selected tumor cell lines
The current study was undertaken to assess response to aryl hydrocarbon receptor antagonists in combination with standard-of-care drugs and investigational agents in solid tumor complex spheroid models. Complex spheroids include a stromal component modeled by human endothelial cells (HUVEC) and fibroblasts modeled by human mesenchymal stem cells (MSCs). The concentration ranges selected for each drug and investigational agent were based upon clinically achievable concentrations if the clinical Cmax of the agent was known.
Compounds. The drugs and investigational agents: BAY 2416964 (NSC825713), GNF351 (NSC835774), CH-223191 (NSC835775), CPI-455 (NSC825282), aza-TdCyd (NSC777586), decitabine (NSC127716), belinostat (NSC758774), entinostat (NSC756642), pevonedistat (NSC761192), tazemetostat (NSC777109), talazoparib (NSC765396), olaparib (NSC753686), selinexor (NSC780203), nedisertib (M3814, NSC802822), bortezomib (NSC756655), venetoclax (NSC766270), doxorubicin (NSC123127), elimusertib (BAY189344, NSC800525), ceralasertib (AZD6738, NSC777638), TAK-243 (NSC785004), alisertib (NSC759677), etoposide (NSC141540), topotecan (NSC609699), eribulin (NSC707389), gemcitabine (NSC613327), carboplatin (NSC241240), cisplatin (NSC119875), and SN-38 (NSC673596) were obtained from the National Cancer Institute (NCI) Developmental Therapeutics Program Chemical Repository (32). The FDA-approved anticancer drug set is available from the Developmental Therapeutics Program at https://dtp.cancer.gov/organization/dscb/obtaining/available plates.htm. […] The stock solutions were prepared in dimethyl sulfoxide (DMSO, Sigma-Aldrich, St. Louis, MO, cat. D2650), except for the platinum compounds which were prepared in saline (Quality Biological, Gaithersburg, MD, cat. 114-055-101), at 800-fold the tested concentration and stored at -70 degrees C prior to their use. All drugs and investigational agents were tested over a range starting from a high concentration at or near the clinical Cmax and decreasing in half-log increments. If the clinical Cmax for an agent had not been determined, the highest concentration tested was 10 microM (Table 1).
Cell Culture. All cells were maintained in an incubator at 37 degrees C and 5% CO2 with 95% humidity. The PDC lines were cultured according to standard operating procedures established by the NCI PDMR (https://pdmr.cancer.gov). Briefly, all PDCs were thawed and cultured in Matrigel-coated flasks prepared with a working solution of 1X Ham's F-12 nutrient mix, without supplementation (Invitrogen, Waltham, MA, cat. 11765054), 100 U/mL penicillin-streptomycin (Invitrogen, cat. 15140122), and 2.5% Matrigel (Corning Inc., Corning, NY, cat. 354248) for the first three passages. All PDCs were cultured in complete DMEM/F-12 media containing advanced DMEM/F-12 (Invitrogen, cat. 12634028), 4.9% defined fetal bovine serum, heat inactivated (HyClone Laboratories Inc., Logan, UT, cat. SH30070.03HI), 389 ng/mL hydrocortisone (Sigma-Aldrich, cat. H4001), 9.7 ng/mL human EGF recombinant protein (Invitrogen, cat. PHG0313), 23.4 microg/mL adenine (Sigma-Aldrich, cat. A2786), 97.3 U/mL penicillin-streptomycin (Invitrogen, cat. 15140122), 1.9 mM L-glutamine (Invitrogen, cat. 25030081), and 9.7 microM Y-27632 dihydrochloride (Tocris Bioscience, Bristol, United Kingdom, cat. 1254). The PDCs were cultured in complete DMEM/F12 media without 10 microM Y-27632 dihydrochloride for at least two passages prior to the screen. The established cell lines NCI-H1341 and […] were cultured in DMEM/F-12, HEPES (Invitrogen, cat. 11330032), 5% defined fetal bovine serum (HyClone Laboratories Inc., cat. SH30070.03), ITS premix universal culture supplement [insulin (5 microg/mL), transferrin (5 microg/mL), and selenious acid (5 ng/mL)] […]

[1] = second compound 0.1 µM, first compound 0.0316 µM
[2] = second compound 0.1 µM, first compound 0.1 µM
[3] = second compound 0.1 µM, first compound 0.316 µM
[4] = second compound 0.1 µM, first compound 1 µM
[5] = second compound 0.1 µM, first compound 3.16 µM
[6] = second compound 0.1 µM, first compound 10 µM
[7] = second compound 0.316 µM, first compound 0.0316 µM
[8] = second compound 0.316 µM, first compound 0.1 µM
[9] = second compound 0.316 µM, first compound 0.316 µM
[10] = second compound 0.316 µM, first compound 1 µM
[11] = second compound 0.316 µM, first compound 3.16 µM
[12] = second compound 0.316 µM, first compound 10 µM
[13] = second compound 1 µM, first compound 0.0316 µM
[14] = second compound 1 µM, first compound 0.1 µM
[15] = second compound 1 µM, first compound 0.316 µM
[16] = second compound 1 µM, first compound 1 µM
[17] = second compound 1 µM, first compound 3.16 µM
[18] = second compound 1 µM, first compound 10 µM
[19] = second compound 3.16 µM, first compound 0.0316 µM
[20] = second compound 3.16 µM, first compound 0.1 µM
[21] = second compound 3.16 µM, first compound 0.316 µM
[22] = second compound 3.16 µM, first compound 1 µM
[23] = second compound 3.16 µM, first compound 3.16 µM
[24] = second compound 3.16 µM, first compound 10 µM
[25] = second compound 10 µM, first compound 0.0316 µM
[26] = second compound 10 µM, first compound 0.1 µM
[27] = second compound 10 µM, first compound 0.316 µM
[28] = second compound 10 µM, first compound 1 µM
[29] = second compound 10 µM, first compound 3.16 µM
[30] = second compound 10 µM, first compound 10 µM
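Note: compound exposure lasted 7 days after spheroids had grown for 3 days.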

Compound CC(C)CC(NC(=O)C(Cc1ccccc1)NC(=O)c1cnccn1)B(O)O (stereo not given) + CC(CO)NC(=O)c1cc(-c2ccc(Cl)cc2)nn(-c2cnn(C)c2)c1=O has an IC50 (second compound 0.1 µM) of 0.00584 µM, an IC50 (second compound 0.316 µM) of 0.00584 µM and an IC50 (second compound 1 µM) of 0.00539 µM. It also gave an IC50 (second compound 3.16 µM) of 0.00546 µM, an IC50 (second compound 10 µM) of 0.00513 µM and a viability, T/C (second compound 0.1 µM, first compound 0.000949 µM) of 91.3%. It also gave a viability, T/C (second compound 0.1 µM, first compound 0.003 µM) of 102%, a viability, T/C (second compound 0.1 µM, first compound 0.00949 µM) of 16% and a viability, T/C (second compound 0.1 µM, first compound 0.03 µM) of 1.65%. The viability, T/C (second compound 0.1 µM, first compound 0.0949 µM) was 10.5%, the viability, T/C (second compound 0.1 µM, first compound 0.3 µM) was 0.88% and the viability, T/C (second compound 0.316 µM, first compound 0.000949 µM) was 92.5%. The viability, T/C (second compound 0.316 µM, first compound 0.003 µM) was 115%, the viability, T/C (second compound 0.316 µM, first compound 0.00949 µM) was 10.9% and the viability, T/C (second compound 0.316 µM, first compound 0.03 µM) was 0.58%. The viability, T/C (second compound 0.316 µM, first compound 0.0949 µM) was 0.4%, the viability, T/C (second compound 0.316 µM, first compound 0.3 µM) was 0.53% and the viability, T/C (second compound 1 µM, first compound 0.000949 µM) was 100%. For the same compound, the viability, T/C (second compound 1 µM, first compound 0.003 µM) was 86.1%, the viability, T/C (second compound 1 µM, first compound 0.00949 µM) was 15.2% and the viability, T/C (second compound 1 µM, first compound 0.03 µM) was 3.08%. The viability, T/C (second compound 1 µM, first compound 0.0949 µM) was 0.35%, the viability, T/C (second compound 1 µM, first compound 0.3 µM) was 0.5% and the viability, T/C (second compound 3.16 µM, first compound 0.000949 µM) was 80.9%. It also gave a viability, T/C (second compound 3.16 µM, first compound 0.003 µM) of 92.5%, a viability, T/C (second compound 3.16 µM, first compound 0.00949 µM) of 16.2% and a viability, T/C (second compound 3.16 µM, first compound 0.03 µM) of 1.89%. For the same compound, the viability, T/C (second compound 3.16 µM, first compound 0.0949 µM) was 1.77%, the viability, T/C (second compound 3.16 µM, first compound 0.3 µM) was 5.12% and the viability, T/C (second compound 10 µM, first compound 0.000949 µM) was 74.7%. For the same compound, the viability, T/C (second compound 10 µM, first compound 0.003 µM) was 90.8%, the viability, T/C (second compound 10 µM, first compound 0.00949 µM) was 12.6% and the viability, T/C (second compound 10 µM, first compound 0.03 µM) was 1.86%. For the same compound, the viability, T/C (second compound 10 µM, first compound 0.0949 µM) was 0.41% and the viability, T/C (second compound 10 µM, first compound 0.3 µM) was 0.56%.

With Nc1ccccc1NC(=O)c1ccc(CNC(=O)OCc2cccnc2)cc1 + CC(CO)NC(=O)c1cc(-c2ccc(Cl)cc2)nn(-c2cnn(C)c2)c1=O the IC50 (second compound 0.1 µM) was 8.23 µM, the IC50 (second compound 0.316 µM) was 6.81 µM and the IC50 (second compound 1 µM) was 7.78 µM. The IC50 (second compound 3.16 µM) was 7.59 µM, the IC50 (second compound 10 µM) was 6.07 µM and the viability, T/C [1] was 98.3%. It also gave a viability, T/C [2] of 99.1%, a viability, T/C [3] of 99.3% and a viability, T/C [4] of 99.2%. For the same compound, the viability, T/C [5] was 72.6%, the viability, T/C [6] was 45.4% and the viability, T/C [7] was 97.3%. For the same compound, the viability, T/C [8] was 110%, the viability, T/C [9] was 107% and the viability, T/C [10] was 91.3%. For the same compound, the viability, T/C [11] was 78%, the viability, T/C [12] was 36.5% and the viability, T/C [13] was 97.7%. It also gave a viability, T/C [14] of 91.4%, a viability, T/C [15] of 98.4% and a viability, T/C [16] of 92.9%. It also gave a viability, T/C [17] of 71%, a viability, T/C [18] of 44.1% and a viability, T/C [19] of 90.2%. For the same compound, the viability, T/C [20] was 84.7%, the viability, T/C [21] was 97.2% and the viability, T/C [22] was 82.2%. The viability, T/C [23] was 74.1%, the viability, T/C [24] was 42.4% and the viability, T/C [25] was 96%. The viability, T/C [26] was 88%, the viability, T/C [27] was 86.1% and the viability, T/C [28] was 83.7%. It also gave a viability, T/C [29] of 70.8% and a viability, T/C [30] of 34.4%.

In the case of O=C(C=Cc1cccc(S(=O)(=O)Nc2ccccc2)c1)NO + CC(CO)NC(=O)c1cc(-c2ccc(Cl)cc2)nn(-c2cnn(C)c2)c1=O, the IC50 (second compound 0.1 µM) is reported as greater than 10 µM, the IC50 (second compound 0.316 µM) is reported as greater than 10 µM and the IC50 (second compound 1 µM) is reported as greater than 10 µM. For the same compound, the IC50 (second compound 3.16 µM) was greater than 10 µM, the IC50 (second compound 10 µM) was greater than 10 µM and the viability, T/C [1] was 102%. It also gave a viability, T/C [2] of 102%, a viability, T/C [3] of 111% and a viability, T/C [4] of 112%. The viability, T/C [5] was 96.8%, the viability, T/C [6] was 79.1% and the viability, T/C [7] was 92.8%. The viability, T/C [8] was 107%, the viability, T/C [9] was 111% and the viability, T/C [10] was 106%. It also gave a viability, T/C [11] of 102%, a viability, T/C [12] of 76.2% and a viability, T/C [13] of 90.2%. For the same compound, the viability, T/C [14] was 96.8%, the viability, T/C [15] was 104% and the viability, T/C [16] was 101%. The viability, T/C [17] was 94.3%, the viability, T/C [18] was 82.6% and the viability, T/C [19] was 84.2%. For the same compound, the viability, T/C [20] was 83.8%, the viability, T/C [21] was 93.9% and the viability, T/C [22] was 95.4%. The viability, T/C [23] was 84%, the viability, T/C [24] was 83.9% and the viability, T/C [25] was 85%. The viability, T/C [26] was 95.4%, the viability, T/C [27] was 81.7% and the viability, T/C [28] was 89.4%. The viability, T/C [29] was 90.5% and the viability, T/C [30] was 79.4%.

— PubChem BioAssay AID1919001 (Molecular Pharmacology Branch, DTP, NCI, 2023)
